Data set [1] in a line: Water stability over time without applied voltage (HPLC residual rate). The class given is physicochemical. The note with it: for Residual rate (%): aqueous mixed solution with NIKKOL HCO-40, allowed to stand at 25° C. for 24 hours, HPLC area after 24 hours ÷ area immediately after preparation × 100; for water stability over time (in words): without applied voltage, 25° C., 24 hours, judged from residual rate. The method, then: Water Stability Over Time without Applied Voltage
To 1.0 part by mass of each of the compounds (1) to (9) synthesized in Examples and Comparative Examples, 1000 parts by mass of NIKKOL HCO-40 (Nikko Chemicals Co., Ltd.) and 10000 parts by mass of acetone were mixed.
Next, after removing the acetone using an evaporator at a temperature of 40° C., 10000 parts of water was added thereto to prepare a uniform mixed solution 1. The mixed solution 1 was allowed to stand at 25° C. for 24 hours.
Immediately after the preparation of the mixed solution 1 and after allowing the mixed solution 1 to stand for 24 hours, an HPLC measurement was carried out under the following analysis conditions, and a residual rate in the water stability test over time was calculated using the following expression.
(Area value after standing for 24 hours)÷(Area value immediately after preparation)×100=Residual rate (%)
SCL-10AVP manufactured by Shimadzu Corporation
Eluent: single eluent prepared by adding 0.2% by volume of each of acetic acid and triethylamine to a mixed solution obtained by mixing tetrahydrofuran (THF) and water at a ratio of 60:40

Data set [2] can be described thus: Water stability under applied voltage (square wave voltammetry, oxidation potential). The class given is physicochemical. The note with it: for Oxidation potential: SWV, 0.5 mM in THF:water=90:10, gold electrode, Ag wire reference, ferrocene reference substance, None = no oxidation potential, more stable than 1.3 V (THF oxidized); for water stability under applied voltage (in words): judged from whether an oxidation potential is observed. How it is done: Water Stability Under Applied Voltage
Water stability against voltage of each of the compounds (1) to (9) synthesized in Examples and Comparative Examples was evaluated by the measurement shown below.
Measurement: square wave voltammetry (SWV)
Action electrode: gold electrode
Counter electrode: platinum black electrode
Reference electrode: Ag wire
Supporting electrolyte: tetrabutylammonium hexafluorophosphate (manufactured by FUJIFILM Wako Pure Chemical Corporation)
Reference substance: ferrocene
The compound (1) was adjusted to a concentration of 0.5 mM using a mixed solvent of THF:water=90:10, and nitrogen bubbling was carried out for 10 minutes to produce a measurement sample.
Next, a measurement was performed under the above-described analysis conditions to observe an oxidation potential.
Oxidation potentials of the compounds (2) to (9) were measured under the same conditions.

Values joined by “and” are separate entries in the source; they are usually repeats but may differ in a detail not shown here. Identical values can stand only once.

For the compound `Cc1cc(C)c(C2C(=O)Oc3c2cc(C(C)(C)C)cc3C(C)(C)C)c(C)c1` (stereo not drawn) [Compound (1)], the “Residual rate (%)” value in data set [1] is listed as 100%. For the same compound, the Oxidation potential result in data set [2] is “None”.

For `COc1cc(OC)c(C2C(=O)Oc3c2cc(C(C)(C)C)cc3C(C)(C)C)c(OC)c1` (stereo not drawn) [Compound (2)], the “Residual rate (%)” value in data set [1] was found to be 95%. In data set [2], the Oxidation potential entry is given as “None”.

As for `Cc1cc(C)c(C2C(=O)Oc3c2cc(C)cc3C(C)(C)C)c(C)c1` (stereo not drawn) [Compound (3)], in data set [1], the “Residual rate (%)” value was determined as 90%. In addition, in data set [2], the Oxidation potential result is recorded as “None”.

For `COc1cc(OC)c(C2C(=O)Oc3c2cc(C)cc3C(C)(C)C)c(OC)c1` (stereo not drawn) [Compound (4)], the “Residual rate (%)” value in data set [1] was found to be 95%. In data set [2], the Oxidation potential result is “None”.

In the case of `Cc1ccc(C2C(=O)Oc3c2cc(C(C)(C)C)cc3C(C)(C)C)cc1C` (stereo not drawn) [Compound (5)], in data set [1], the “Residual rate (%)” value is recorded as 0% and the “water stability over time (in words)” value was “deteriorated”. For the same compound, in data set [2], the Oxidation potential entry was “None”.

As for `Cc1c(C)c(C)c(C2C(=O)Oc3c2cc(C(C)(C)C)cc3C(C)(C)C)c(C)c1C` (stereo not drawn) [Compound (6)], in data set [1], the “Residual rate (%)” value amounted to 10% and the “water stability over time (in words)” value was “still deteriorated”. The Oxidation potential result in data set [2] is “None”.

In the case of `CCCCCCCCOc1ccc(C2C(=O)Oc3c2cc(C(C)(C)C)cc3C(C)(C)C)cc1` (stereo not drawn) [Compound (7)], in data set [1], the “Residual rate (%)” value is recorded as 0% and the “water stability over time (in words)” value is recorded as “deteriorated”. Also, the Oxidation potential entry in data set [2] is on record as “None”.

In the case of `Cc1c(C(C)(C)C)cc(C(C)(C)C)c(O)c1C1C(=O)Oc2c1cc(C(C)(C)C)cc2C(C)(C)C` (stereo not drawn) [Compound (8)], in data set [1], the “Residual rate (%)” value came out at 0%. Besides, in data set [2], the Oxidation potential was 0.65 V and 1.00 V and 1.15 V; the “water stability under applied voltage (in words)” value was “low”.

For `CC(C)(C)c1cc(C2C(=O)Oc3c2cc(C(C)(C)C)cc3C(C)(C)C)c(O)c(C(C)(C)C)c1` (stereo not drawn) [Compound (9)], in data set [2], the “water stability under applied voltage (in words)” value is on record as “low”.

Source of the values: patent publication US20230141533A1, “LACTONE COMPOUND” (FUJIFILM Corporation, priority 2021, published 2023).
